Results taken from the supplement of paper PMC11208160.

assay: recombinant barcode read abundance after kanamycin selection (control-corrected) (log10(CPM+1)); higher = more efficient recombination; sequences stand for … in AGTGCAGAGAAAATCGGCCAGTTTTCTCTGCCTGCAGTCCGCATGCCGT…AGATTTATGCAGCGGACTGCCTTTCTCCCAAAGTGATAAACCGGACAGTATCATGGACCGGTTTTCCCGGTAATCCGTATTTGCAAGGTTGGTTTCACT; site = the 11-nt target
In short: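 Recombination efficiency was calculated from barcode counts at recombinant junctions, normalized to counts per million, averaged and corrected by the control. Each value is given as log10(CPM+1). The constructs were Gibson-cloned oligos (promoter, target, barcode, J23119-driven first 104 bridge RNA bases) in a vector with the remaining 73 bp and a T7-inducible recombinase, co-electroporated into E. coli with a donor plasmid and plated in duplicate on chloramphenicol/ampicillin LB agar (control) or chloramphenicol/ampicillin/kanamycin with 0.1 mM IPTG.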
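Further: IS621 recombinase and bridge RNA in Escherichia coli cells.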

| Sequence | recombinant barcode read abundance (log10) |
| --- | --- |
| TGTACGCCTTGGGTTCTAACCTGTTGCCT (site GAGGTAACTGT) | 0.0511 |
| TGTACGCCTTGGGTTCTAACCTGTTGCCT (site TGTACGCCTAG) | 0.0173 |
| TGTAGGACTTGGGTTCTAACCTGTTGCCT (site AGTAGGACTAG) | 0.0549 |
| TGTAGGACTTGGGTTCTAACCTGTTGCCT (site CGTAGGACTAG) | 0.142 |
| TGTAGGACTTGGGTTCTAACCTGTTGCCT (site GGTAGGACTAG) | 0.0264 |
| TGTAGGACTTGGGTTCTAACCTGTTGCCT (site TGTAGGACTAG) | 0.553 |
| TGTAGTCCTTGGGTTCTAACCTGTTGCGT (site TGTAGTCCTAA) | 0.062 |
| TGTAGTCCTTGGGTTCTAACCTGTTGCGT (site TGTAGTCCTAC) | 1.19 |
| TGTAGTCCTTGGGTTCTAACCTGTTGCGT (site TGTAGTCCTAG) | 0.293 |
| TGTAGTCCTTGGGTTCTAACCTGTTGCGT (site TGTAGTCCTAT) | 0.0925 |
| TGTCCCGCTTGGGTTCTAACCTGTTGCCT (site TGTATCGCTAG) | 0.0575 |
| TGTCCCGCTTGGGTTCTAACCTGTTGCCT (site TGTCCCGCTAG) | 0.708 |
| TGTCCCTCTTGGGTTCTAACCTGTTGCCT (site TGTACCTCTAG) | 0.014 |
| TGTCCCTCTTGGGTTCTAACCTGTTGCCT (site TGTCCCTCTAG) | 0.769 |
| TGTCCCTCTTGGGTTCTAACCTGTTGCCT (site TGTGCCTCTAG) | 0.111 |
| TGTCCCTCTTGGGTTCTAACCTGTTGCCT (site TGTTCCTCTAG) | 0.0962 |
| TGTCGACCTTGGGTTCTAACCTGTTGCCT (site AGTCGACCTAG) | 0.596 |
| TGTCGACCTTGGGTTCTAACCTGTTGCCT (site CGTCGACCTAG) | 0.113 |
| TGTCGACCTTGGGTTCTAACCTGTTGCCT (site GGTCGACCTAG) | 0.0191 |
| TGTCGACCTTGGGTTCTAACCTGTTGCCT (site TGTCGACCTAG) | 0.709 |
| TGTCGGACTTGGGTTCTAACCTGTTGCAG (site TGTCGGACTAT) | 0.197 |
| TGTCGGACTTGGGTTCTAACCTGTTGCAG (site TGTCGGACTCT) | 1.01 |

| Sequence | recombinant barcode read abundance (log10) |
| --- | --- |
| TGTCGGACTTGGGTTCTAACCTGTTGCAG (site TGTCGGACTGT) | 0.127 |
| TGTCGGACTTGGGTTCTAACCTGTTGCAG (site TGTCGGACTTT) | 0.041 |
| TGTGCCTCTTGGGTTCTAACCTGTTGCCT (site TGTACCTCTAG) | 0.368 |
| TGTGCCTCTTGGGTTCTAACCTGTTGCCT (site TGTCCCTCTAG) | 0.02 |
| TGTGCCTCTTGGGTTCTAACCTGTTGCCT (site TGTGCCTCTAG) | 0.564 |
| TGTGCCTCTTGGGTTCTAACCTGTTGCCT (site TGTTCCTCTAG) | 0.173 |
| TGTTACCCTTGGGTTCTAACCTGTTGCCT (site TGGTACCCTAG) | 0.0146 |
| TGTTACCCTTGGGTTCTAACCTGTTGCCT (site TGTTACCCTAG) | 0.434 |
| TGTTAGACTTGGGTTCTAACCTGTTGCCT (site TGTTAGACTAG) | 0.164 |
| TGTTAGACTTGGGTTCTAACCTGTTGCCT (site TGTTAGTCTCG) | 0.113 |
| TGTTCATCTTGGGTTCTAACCTGTTGCCT (site TGTTCATCTAG) | 0.00521 |
| TGTTCATCTTGGGTTCTAACCTGTTGCCT (site TGTTCTTCTAG) | 0.0677 |
| TGTTCTTCTTGGGTTCTAACCTGTTGCCT (site TGTTCATCTAG) | 0.0245 |
| TGTTCTTCTTGGGTTCTAACCTGTTGCCT (site TGTTCTTCTAG) | 0.12 |
| TGTTGGCCTTGGGTTCTAACCTGTTGCCT (site TGTTGCACTAG) | 0.0375 |
| TGTTGGCCTTGGGTTCTAACCTGTTGCCT (site TGTTGGCCTAG) | 0.143 |
| TTAACTACTTGGGTTCTAACCTGTTGCTA (site TTAACTACTAA) | 0 |
| TTAACTACTTGGGTTCTAACCTGTTGCTA (site TTAACTACTCA) | 0.0937 |
| TTAACTACTTGGGTTCTAACCTGTTGCTA (site TTAACTACTGA) | 0.0479 |
| TTAACTACTTGGGTTCTAACCTGTTGCTA (site TTAACTACTTA) | 0.152 |
| TTAACTACTTGGGTTCTAACCTGTTGCTG (site TTAACTACTAA) | 0.0189 |
| TTAACTACTTGGGTTCTAACCTGTTGCTG (site TTAACTACTCA) | 0.425 |

| Sequence | recombinant barcode read abundance (log10) |
| --- | --- |
| TTAACTACTTGGGTTCTAACCTGTTGCTG (site TTAACTACTGA) | 0.0228 |
| TTAACTACTTGGGTTCTAACCTGTTGCTG (site TTAACTACTTA) | 0.0609 |
| TTACGCTCTTGGGTTCTAACCTGTTGCTA (site GGTTATCCTCC) | 0.191 |
| TTACGCTCTTGGGTTCTAACCTGTTGCTA (site TTACGCTCTTA) | 0.621 |
| TTACGGGCTTGGGTTCTAACCTGTTGCGG (site TTACGAGCTCC) | 1.71 |
| TTACGGGCTTGGGTTCTAACCTGTTGCGG (site TTACGCGCTCC) | 0.183 |
| TTACGGGCTTGGGTTCTAACCTGTTGCGG (site TTACGGGCTCC) | 2.58 |
| TTACGGGCTTGGGTTCTAACCTGTTGCGG (site TTACGTGCTCC) | 0.189 |
| TTACTAGCTTGGGTTCTAACCTGTTGCGT (site AGACTAGCTAC) | 0.0536 |
| TTACTAGCTTGGGTTCTAACCTGTTGCGT (site TTACTAGCTAC) | 1.98 |
| TTACTCTCTTGGGTTCTAACCTGTTGCCT (site TAACTCTCTAG) | 0.127 |
| TTACTCTCTTGGGTTCTAACCTGTTGCCT (site TCACTCTCTAG) | 0.141 |
| TTACTCTCTTGGGTTCTAACCTGTTGCCT (site TGACTCTCTAG) | 0.137 |
| TTACTCTCTTGGGTTCTAACCTGTTGCCT (site TTACTCTCTAG) | 2.13 |
| TTAGGGACTTGGGTTCTAACCTGTTGCCT (site TTAGGGACTAG) | 2.18 |
| TTAGGGACTTGGGTTCTAACCTGTTGCCT (site TTAGGGCCTAG) | 0.0947 |
| TTAGGGACTTGGGTTCTAACCTGTTGCCT (site TTAGGGGCTAG) | 0.517 |
| TTAGGGACTTGGGTTCTAACCTGTTGCCT (site TTAGGGTCTAG) | 0.108 |
| TTAGGGGCTTGGGTTCTAACCTGTTGCCT (site TTAGGGACTAG) | 0.911 |
| TTAGGGGCTTGGGTTCTAACCTGTTGCCT (site TTAGGGCCTAG) | 0.08 |
| TTAGGGGCTTGGGTTCTAACCTGTTGCCT (site TTAGGGGCTAG) | 1.51 |
| TTAGGGGCTTGGGTTCTAACCTGTTGCCT (site TTAGGGTCTAG) | 0.0155 |

| Sequence | recombinant barcode read abundance (log10) |
| --- | --- |
| TTAGGTCCTTGGGTTCTAACCTGTTGCAG (site TTAGATCCTAT) | 0.182 |
| TTAGGTCCTTGGGTTCTAACCTGTTGCAG (site TTAGGTCCTCT) | 2.5 |
| TTAGTAACTTGGGTTCTAACCTGTTGCCT (site CTAGTACCTAG) | 0.0115 |
| TTAGTAACTTGGGTTCTAACCTGTTGCCT (site TTAGTAACTAG) | 1.21 |
| TTAGTACCTTGGGTTCTAACCTGTTGCCT (site TTAGTACCTAG) | 2.55 |
| TTAGTACCTTGGGTTCTAACCTGTTGCCT (site TTAGTCCCTAG) | 0.218 |
| TTAGTACCTTGGGTTCTAACCTGTTGCCT (site TTAGTGCCTAG) | 0.135 |
| TTAGTACCTTGGGTTCTAACCTGTTGCCT (site TTAGTTCCTAG) | 0.369 |
| TTAGTCCCTTGGGTTCTAACCTGTTGCCG (site CTAGTCCCTCG) | 1.09 |
| TTAGTCCCTTGGGTTCTAACCTGTTGCCG (site TTAGTCCCTCG) | 2.14 |
| TTAGTGCCTTGGGTTCTAACCTGTTGCCT (site TTAGTACCTAG) | 1.55 |
| TTAGTGCCTTGGGTTCTAACCTGTTGCCT (site TTAGTCCCTAG) | 0.0383 |
| TTAGTGCCTTGGGTTCTAACCTGTTGCCT (site TTAGTGCCTAG) | 2.14 |
| TTAGTGCCTTGGGTTCTAACCTGTTGCCT (site TTAGTTCCTAG) | 0.0759 |
| TTAGTTCCTTGGGTTCTAACCTGTTGCCT (site TTAGTACCTAG) | 0.146 |
| TTAGTTCCTTGGGTTCTAACCTGTTGCCT (site TTAGTCCCTAG) | 0.186 |
| TTAGTTCCTTGGGTTCTAACCTGTTGCCT (site TTAGTGCCTAG) | 0 |
| TTAGTTCCTTGGGTTCTAACCTGTTGCCT (site TTAGTTCCTAG) | 0.634 |
| TTATAAGCTTGGGTTCTAACCTGTTGCCA (site GTATGAGCTTG) | 0.0336 |
| TTATAAGCTTGGGTTCTAACCTGTTGCCA (site TTATAAGCTTG) | 0.269 |
